In patent US8241866B2, “Method for detection of microorganism and kit for detection of microorganism” (Morinaga Milk Industry Co., Ltd., priority 2005, dated 2012):

Columns and labels:
[1] = system: contaminants of somatic cells and injured cells in LTLT non-homogenized milk; assay: FCM after SYTO9/PI staining of LP-treated and EMA-treated LTLT non-homogenized milk not inoculated with bacteria; conditions: LP-treated and EMA-treated (LPE-treated) LTLT non-homogenized milk not inoculated
Description: Each of the LTLT non-homogenized milk inoculated with Escherichia coli (live cells), LTLT non-homogenized milk inoculated with Staphylococcus epidermidis (live cells), and LTLT non-homogenized milk not inoculated with the bacteria was subjected to the same lipase treatment and proteinase K treatment (LP treatment) as well as EMA treatment as those in Example 2.
FCM measurement was performed for each of the samples prepared above (measurement time: 5 minutes) in the same manner as that in Control Example 1.

Escherichia coli DH5α = assay: FCM measurement after SYTO9/PI staining of EMA-treated Escherichia coli suspensions (live, injured, dead cells); type: cell-based
[2] = system: chromosomal DNA of Citrobacter koseri JCM 1658; assay: Agarose gel electrophoresis of chromosomal DNA after EMA treatment, Citrobacter; type: cell-based; set-up: key: presence of this band was indicated as (+); absence of this band was indicated as (−); conditions: EMA 4° C. 30 minutes
[3] = system: chromosomal DNA of Salmonella enteritidis IID 604; assay: Agarose gel electrophoresis of chromosomal DNA after EMA treatment, Salmonella; type: cell-based; set-up: key: presence of this band was indicated as (+); absence of this band was indicated as (−); conditions: EMA 4° C. 30 minutes
[4] = system: Escherichia coli (injured cells); type: cell-based; conditions: injured cells inoculated at 1.5×10^6 cfu/ml; LP treatment and EMA treatment
[5] = system: contaminants in heparinized human blood; assay: FCM of human blood by EMA-LNP-FP method versus LNP-FP method; type: cell-based; conditions: 10 μl of 1000 μg/ml EMA to 1 ml blood, 4° C. 5 minutes, visible light 5 minutes
Description: Heparinized blood (type A) was collected from a healthy human subject, and a Listeria live cell suspension of 1.8×10^8 cfu/ml was diluted 10 times with the blood. The suspension was further serially diluted with the blood to prepare blood inoculated with 1.8×10^3 to […] cfu/ml of Listeria monocytogenes (live cells). […] Then, each sample was irradiated with visible light of 500 W for 5 minutes on ice. 750 μl of physiological saline, 200 μl of a 189 U/ml lipase solution and 10 μl of a 10000 U/ml deoxyribonuclease solution was added to each sample, and the sample was maintained at 30° C. for 30 minutes. […] The total volume of the aforementioned EMA-treated blood was carefully overlaid on 2 ml of Ficoll Paque filled beforehand in a 15 ml volume polypropylene tube, and subjected to centrifugation at 100×g for 5 minutes. […] The same procedure as that of the aforementioned method (referred to as the “EMA-LNP-FP method”) was also performed in parallel except that the EMA treatment was not performed (referred to as the “LNP-FP method”) to prepare a sample for FCM measurement.

[6] = system: Staphylococcus epidermidis KD strain; assay: FCM measurement after SYTO9/PI staining of LP-treated and EMA-treated Staphylococcus epidermidis suspensions; type: cell-based; conditions: EMA treatment after LP treatment; 10 μl of 1000 μg/ml EMA to 1 ml, 4° C. 30 minutes, visible light 500 W 10 minutes
[7] = system: chromosomal DNA of Klebsiella oxytoca JCM 1665; assay: Agarose gel electrophoresis of chromosomal DNA after EMA treatment, Klebsiella; type: cell-based; set-up: key: presence of this band was indicated as (+); absence of this band was indicated as (−); conditions: EMA 4° C. 30 minutes
[8] = system: chromosomal DNA of Escherichia coli DH5α; assay: Agarose gel electrophoresis of chromosomal DNA after EMA treatment, Escherichia coli; type: cell-based; set-up: key: presence of this band was indicated as (+); absence of this band was indicated as (−)
[9] = system: Mycobacterium tuberculosis H37RA; assay: FCM after SYTO9/PI staining of EMA-treated Mycobacterium tuberculosis (live, injured, dead cells)
[10] = system: Listeria monocytogenes JCM 2873; assay: Colony formation of Listeria cultured with ampicillin and gentamycin; type: cell-based; conditions: ampicillin 500 μg/ml together with gentamycin 200 μg/ml, 30° C. for 3 weeks
[11] = system: Escherichia coli (live cells) and contaminants originated in UHT homogenized milk; type: cell-based; conditions: treatment after LP treatment, 37° C.; amsacrine 10 minutes, others 30 minutes; 7.5×10^6 cfu/ml
Excerpt: Specific procedures are as shown in a) to d) described below.

[12] = system: Mycobacterium tuberculosis H37RA; type: cell-based
[13] = after the EMA treatment, dead cells (boiling water 12 minutes)
[14] = after the EMA treatment, injured cells (boiling water 50 seconds)
[15] = after the EMA treatment, live cells
[16] = after the EMA treatment (about 30 μg/ml, 4° C. 2.5 hours), injured cells treated with isonicotinic acid hydrazide and rifampicin

**Q.** How did the SYTO9 intensity [1] turn out when CC[n+]1c(-c2ccccc2)c2cc(N=[N+]=[N-])ccc2c2ccc(N)cc21.[Cl-] [EMA, 8-azido-3-amino-6-phenyl-5-ethylphenanthradinium chloride] was run?
**A.** below 5×10^2

**Q.** And the “distinction of live cells and injured cells by FCM” value (Escherichia coli DH5α; EMA treatment after LP treatment, 10 μl of 1000 μg/ml EMA to 1 ml, 4° C. 30 minutes, visible light 500 W 10 minutes)?
**A.** clearly distinguish

**Q.** And the “intensity of staining with SYTO9 for injured cells” value (Escherichia coli DH5α; after the EMA treatment versus before)?
**A.** markedly decreased

**Q.** And the “PI region of main distribution, dead cells” value (Escherichia coli DH5α; [13])?
**A.** PI(+) (The boundary value of the intensity of the staining with PI is defined to be an intensity of 2×10^2, results exceeding that value are represented as PI(+))

**Q.** What about the “SYTO9 region of main distribution, dead cells” value (Escherichia coli DH5α; [13]) of the same compound?
**A.** SYTO9(−) (results lower than that value are represented as SYTO9(−))

**Q.** And the “PI region of main distribution, injured cells” value (Escherichia coli DH5α; [14])?
**A.** PI(−) (results lower than that value are represented as PI(−))

**Q.** What about the “SYTO9 region of main distribution, injured cells” value (Escherichia coli DH5α; [14]) of the same compound?
**A.** SYTO9(−) (results lower than that value are represented as SYTO9(−))

**Q.** And the “PI region of main distribution, live cells” value (Escherichia coli DH5α; [15])?
**A.** PI(−) (results lower than that value are represented as PI(−))

**Q.** And the “SYTO9 region of main distribution, live cells” value (Escherichia coli DH5α; [15])?
**A.** SYTO9(+) (The boundary value of the intensity of the staining with SYTO9 is defined to be an intensity of 10^3, results exceeding that value are represented as SYTO9(+))

**Q.** And the “LL band originated in chromosomal DNA, injured cells” value (“LL band originated … injured cells” below) ([2]; EMA-treated injured cells)?
**A.** (−)

**Q.** What about the “LL band originated in chromosomal DNA, live cells” value (shortened to “LL band originated … live cells”) ([2]; EMA-treated live cells) of the same compound?
**A.** (+)

**Q.** And the “LL band originated … injured cells” value ([3]; EMA-treated injured cells)?
**A.** (−)

**Q.** And the “LL band originated … live cells” value ([3]; EMA-treated live cells)?
**A.** (+)

**Q.** And the “plotted points in the SYTO9(+)·PI(−) region suggesting the presence of live cells” value [4]?
**A.** hardly existed

**Q.** What about the “shift of plotted points of the contaminants corresponding to SYTO9(−)·PI(−)” value [5] of the same compound?
**A.** not shifted to the left direction

**Q.** And the “distinction of live cells and injured cells by FCM” value [6]?
**A.** the same results

**Q.** And the “LL band originated … injured cells” value ([7]; EMA-treated injured cells)?
**A.** (−)

**Q.** What about the “LL band originated … live cells” value ([7]; EMA-treated live cells) of the same compound?
**A.** (+)

**Q.** And the “LL band originated in chromosomal DNA, dead cells” value ([8]; EMA-treated dead cells (FIG. 11))?
**A.** (−)

**Q.** And the “LL band originated … injured cells” value ([8]; EMA-treated injured cells, EMA 4° C. 30 minutes)?
**A.** (−)

**Q.** And the “LL band originated … live cells” value ([8]; EMA-treated live cells, EMA 4° C. 30 minutes)?
**A.** (+)

**Q.** And the “PI region, injured cells” value [9, 16]?
**A.** PI(−) (results lower than that value are represented as PI(−))

**Q.** What about the “SYTO9 region, injured cells” value [9, 16] of the same compound?
**A.** SYTO9(−) (results lower than that value are represented as SYTO9(−))

**Q.** And the “SYTO9 region of main distribution, dead cells” value [9, 13]?
**A.** SYTO9(+) (The boundary value of the intensity of the staining with SYTO9 is defined to be an intensity of 10^3, results exceeding that value are represented as SYTO9(+))

**Q.** And the “SYTO9 intensity of the injured cells” value ([9]; by the EMA treatment)?
**A.** markedly shifted to the left direction

**Q.** With CC1(C)S[C@@H]2[C@H](NC(=O)[C@H](N)c3ccccc3)C(=O)N2[C@H]1C(=O)O [ampicillin] as the compound, how does the “colony formation on L agar medium” value [10] read?
**A.** did not form colonies

**Q.** CC[C@@]1(O)C(=O)OCc2c1cc1n(c2=O)Cc2cc3ccccc3nc2-1 [camptothecin] was tested. Which “separation of plotted areas of Escherichia coli (live cells) and contaminants” value (from here on “separation”) [11] did it give?
**A.** clearly separated

**Q.** With O=C(O)c1cn(C2CC2)c2cc(N3CCNCC3)c(F)cc2c1=O [ciprofloxacin] as the compound, how does the “separation” value [11] read?
**A.** clearly separated

**Q.** How did the “separation” value [11] turn out when Cc1c2ccncc2c(C)c2c1[nH]c1ccccc12 [ellipticine] was run?
**A.** clearly separated

**Q.** How did the “colony formation on 7H10 medium” value [12] turn out when NNC(=O)c1ccncc1 [isonicotinic acid hydrazide] was run?
**A.** did not form colonies

**Q.** For gentamycin, which “colony formation on L agar medium” value [10] is on record?
**A.** did not form colonies
